In patent publication US10208071B2, “Use of agonists of formyl peptide receptor 2 for treating ocular inflammatory diseases” (Allergan, Inc., priority 2013, dated 2019):

Biological target: FPR2 (Homo sapiens (Human), UniProt P25090)
Test: FLIPR Ca+2 response, HEK-Gα16 cells stably expressing the human FPR2 receptor (Table 4)
Format: cell-based
Settings: for FPR2 (efficacy): efficacy in parentheses
Procedure: FLIPR: HEK-Gα16 cells stably expressing the human FPR2 receptor was utilized. Cells were plated into 384-well poly-D-lysine coated plates at a density of 18,000 cells per well one day prior to use. The growth media was DMEM medium supplemented with 10% fetal bovine serum (FBS), 1% antibiotic-antimycotic, 50 μg/ml hygromycin, and 400 μg/ml geneticin. On the day of the experiment, the cells were washed twice with Hank's Balanced Salt Solution supplemented with 20 mM HEPES (HBSS/hepes buffer). The cells were then dye loaded with 2 μM Fluo-4 diluted in the HBSS/Hepes buffer and incubated at 37° C. for 40 minutes. Extracellular dye was removed by washing the cell plates four times prior to placing the plates in the FLIPR (Fluorometric Imaging Plate Reader, Molecular Devices). Ligands were diluted in HBSS/Hepes buffer and prepared in 384-well microplates. Data for Ca^+2 responses were obtained in relative fluorescence units.

Sequence of FPR2 (P25090 whole entry): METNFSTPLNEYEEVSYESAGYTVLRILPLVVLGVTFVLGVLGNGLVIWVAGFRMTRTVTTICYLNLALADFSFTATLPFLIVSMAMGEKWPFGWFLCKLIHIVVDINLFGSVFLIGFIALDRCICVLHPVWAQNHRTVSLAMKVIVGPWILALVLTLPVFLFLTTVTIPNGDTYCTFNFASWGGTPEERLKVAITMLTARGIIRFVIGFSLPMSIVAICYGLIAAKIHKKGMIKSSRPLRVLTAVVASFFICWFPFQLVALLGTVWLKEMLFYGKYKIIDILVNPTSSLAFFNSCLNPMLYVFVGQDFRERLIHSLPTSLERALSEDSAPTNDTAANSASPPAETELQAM

Row | EC50 | FPR2 (efficacy) | SMILES
1 | 0.0115 µM | nM (0.98) | CCC1(CC)NC(=O)N(NC(=O)Nc2ccc(Br)cc2)C1=O [Compound 49, 1-(4-bromophenyl)-3-(4,4-diethyl-2,5-dioxoimidazolidin-1-yl)urea]
2 | 0.0157 µM | nM (1.0) | CCC1(CC)NC(=O)N(NC(=O)Nc2ccc(Br)cc2F)C1=O [Compound 50, 1-(4-bromo-2-fluorophenyl)-3-(4,4-diethyl-2,5-dioxoimidazolidin-1-yl)urea]
3 |  | nM (1.0) | O=C(Nc1ccc(I)cc1)N[C@@H](Cc1ccccc1)C(=O)O [Compound 51, (2S)-2-{[(4-iodophenyl)carbamoyl]amino}-3-phenylpropanoic acid]
4 | 0.0151 µM | nM (1.0) | O=C(Nc1ccc(Br)cc1)NN1C(=O)NC2(CCCCC2)C1=O [Compound 52, 1-(4-bromophenyl)-3-(2,4-dioxo-1,3-diazaspiro[4.5]dec-3-yl)urea]
5 |  | nM (0.87) | CC1(CCc2ccccc2)NC(=O)N(NC(=O)Nc2ccc(Br)cc2)C1=O (stereo not shown) [Compound 54, 1-(4-bromophenyl)-3-[4-methyl-2,5-dioxo-4-(2-phenylethyl)imidazolidin-1-yl]urea]
6 |  | nM (0.99) | O=C(O)CNC(=O)[C@H](Cc1ccccc1)NC(=O)Nc1ccc(Br)cc1 [Compound 55, {[(2S)-2-{[(4-bromophenyl)carbamoyl]amino}-3-phenylpropanoyl]amino}acetic acid]
7 |  | nM (0.98) | O=C(O)CCNC(=O)[C@H](Cc1ccccc1)NC(=O)Nc1ccc(Br)cc1 [Compound 56, 3-{[(2S)-2-{[(4-bromophenyl)carbamoyl]amino}-3-phenylpropanoyl]amino} propanoic acid]
8 | 0.007 µM | nM (0.86) | O=C(Nc1ccc(Br)cc1)N[C@@H](Cc1ccccc1)C(=O)NCCO [Compound 58, (2S)-2-{[(4-bromophenyl)carbamoyl]amino}-N-(2-hydroxyethyl)-3-phenylpropanamide]
9 |  | nM (0.95) | CC[C@H](C)[C@H](NC(=O)Nc1ccc(Br)cc1F)C(=O)NCC(=O)O [Compound 59, {[(2S,3S)-2-{[(4-bromo-2-fluorophenyl)carbamoyl]amino}-3-methylpentanoyl]amino}acetic acid]
10 |  | nM (0.91) | CC[C@H](C)[C@H](NC(=O)Nc1ccc(Br)cc1)C(=O)NCC(N)=O [Compound 60, (2S,3S)-N-(2-amino-2-oxoethyl)-2-{[(4-bromophenyl)carbamoyl]amino}-3-methylpentanamide]
11 | 0.0092 µM | nM (0.97) | CCC1(C(C)C)NC(=O)N(NC(=O)Nc2ccc(Br)cc2F)C1=O (stereo not shown) [Compound 61, 1-(4-bromo-2-fluorophenyl)-3-[4-2,5-dioxo-4-(propan-2-yl)imidazolidin-1-yl]urea]
12 | 0.0103 µM | nM (1.0) | CC[C@H](C)[C@H](NC(=O)Nc1ccc(Br)cc1F)C(=O)NCC(N)=O [Compound 62, (2S,3S)-N-(2-amino-2-oxoethyl)-2-{[(4-bromo-2-fluorophenyl)carbamoyl]amino}-3-methylpentanamide]
13 | 0.0105 µM | nM (0.97) | CC[C@H](C)[C@H](NC(=O)Nc1ccc(Br)cc1)C(=O)NCC(C)=O [Compound 63]
14 | 0.0038 µM | nM (1.0) | CC(C)C1(C(C)C)NC(=O)N(NC(=O)Nc2ccc(Br)cc2)C1=O [Compound 64, 1-(4-bromophenyl)-3-[2,5-dioxo-4,4-di(propan-2-yl)imidazolidin-1-yl]urea]
15 |  | nM (1.0) | O=C(Nc1ccc(Br)cc1)NN1C(=O)NC(C2CC2)(C2CC2)C1=O [Compound 65, 1-(4-bromophenyl)-3-(4,4-dicyclopropyl-2,5-dioxoimidazolidin-1-yl)urea]
16 | 0.0124 µM | nM (0.94) | CC(=O)CNC(=O)[C@H](Cc1ccccc1)NC(=O)Nc1ccc(Br)cc1F [Compound 68, (2S)-2-{[(4-bromo-2-fluorophenyl)carbamoyl]amino}-N-(2-oxopropyl)-3-phenylpropanamide]
17 | 0.0134 µM | nM (0.91) | CCC1(CCc2ccccc2)NC(=O)N(NC(=O)Nc2ccc(Br)cc2F)C1=O (stereo not shown) [Compound 69, 1-(4-bromo-2-fluorophenyl)-3-[4-ethyl-2,5-dioxo-4-(2-phenylethyl)imidazolidin-1-yl]urea]
18 | 0.0071 µM | nM (1.0) | CCC[C@H](NC(=O)Nc1ccc(Br)cc1)C(=O)O [Compound 70, (2S)-2-{[(4-bromophenyl)carbamoyl]amino} pentanoic acid]

Row | EC50 | FPR2 (efficacy) | SMILES
19 | 0.0156 µM | nM (0.98) | O=C(Nc1ccc(Br)cc1F)N[C@@H](Cc1ccccc1)C(=O)NCCO [Compound 71, (2S)-2-{[(4-bromo-2-fluorophenyl)carbamoyl]amino}-N-(2-hydroxyethyl)-3-phenylpropanamide]
20 | 0.0164 µM | nM (0.86) | CCC[C@H](NC(=O)Nc1ccc(Br)cc1)C(=O)NCC(=O)OC [Compound 72, methyl{[(2S)-2-{[(4-bromophenyl)carbamoyl]amino}pentanoyl]amino}acetate]
21 | 0.0145 µM | nM (1.0) | CCC[C@H](NC(=O)Nc1ccc(Br)cc1)C(=O)NCC(=O)OC(C)C [Compound 73, propan-2-yl {[(2S)-2-{[(4-bromophenyl)carbamoyl]amino}pentanoyl]amino}acetate]
22 | 0.0041 µM | nM (0.91) | CCC[C@H](NC(=O)Nc1ccc(Br)cc1F)C(=O)NCC(=O)O [Compound 74, {[(2S)-2-+{[(4-bromo-2-fluorophenyl)carbamoyl]amino}pentanoyl]amino}acetic acid]
23 | 0.0135 µM | nM (0.76) | CC(C)C[C@H](NC(=O)Nc1ccc(Br)cc1)C(=O)NCCO [Compound 75, (2S)-2-{[(4-bromophenyl)carbamoyl]amino}-N-(2-hydroxyethyl)-4-methylpentanamide]
24 | 0.0052 µM | nM (0.99) | CC1(CCc2ccco2)NC(=O)N(NC(=O)Nc2ccc(Br)cc2)C1=O (stereo not shown) [Compound 76, 1-(4-bromophenyl)-3-{4-[2-(furan-2-yl)ethyl]-4-methyl-2,5-dioxoimidazolidin-1-yl}urea]
25 | 0.0011 µM | nM (1.0) | CC(C)C[C@H](NC(=O)Nc1ccc(Br)cc1)C(=O)NCC(N)=O [Compound 77, (2S)-N-(2-amino-2-oxoethyl)-2-{[(4-bromophenyl)carbamoyl]amino}-4-methylpentanamide]
26 |  | nM (0.82) | CC(=O)CNC(=O)[C@H](CC(C)C)NC(=O)Nc1ccc(Br)cc1 [Compound 78, (2S)-2-{[(4-bromophenyl)carbamoyl]amino}-4-methyl-N-(2-oxopropyl)pentanamide]
27 |  | nM (0.97) | CCC[C@H](NC(=O)Nc1ccc(Br)cc1)C(=O)NCC(N)=O [Compound 79, (2S)-N-(2-amino-2-oxoethyl)-2-{[(4-bromophenyl)carbamoyl]amino} pentanamide]
28 | 0.0143 µM | nM (99) | CC1(CCc2ccccc2F)NC(=O)N(NC(=O)Nc2ccc(Br)cc2)C1=O (stereo not shown) [Compound 80, 1-(4-bromophenyl)-3-{4-[2-(2-fluorophenyl)ethyl]-4-methyl-2,5-dioxoimidazolidin-1-yl}urea]
29 |  | nM (0.96) | CCC[C@H](NC(=O)Nc1ccc(Br)cc1F)C(=O)NCC(N)=O [Compound 81, (2S)-N-(2-amino-2-oxoethyl)-2-{[(4-bromo-2-fluorophenyl)carbamoyl]amino} pentanamide]
30 | 0.0163 µM | nM (1.0) | CC1(CCc2ccc(F)cc2)NC(=O)N(NC(=O)Nc2ccc(Br)cc2)C1=O (stereo not shown) [Compound 82, 1-(4-bromophenyl)-3-{4-[2-(4-fluorophenyl)ethyl]-4-methyl-2,5-dioxoimidazolidin-1-yl}urea]
31 |  | nM (1.0) | CC1(CCc2cccc(F)c2)NC(=O)N(NC(=O)Nc2ccc(Br)cc2)C1=O (stereo not shown) [Compound 83, 1-(4-bromophenyl)-3-{4-[2-(3-fluorophenyl)ethyl]-4-methyl-2,5-dioxoimidazolidin-1-yl}urea]
32 | 0.0045 µM | nM (0.95) | CC(C)C[C@H](NC(=O)Nc1ccc(Br)cc1F)C(=O)NCC(N)=O [Compound 84, (2S)-N-(2-amino-2-oxoethyl)-2-{[(4-bromo-2-fluorophenyl)carbamoyl]amino}-4-methylpentanamide]
33 |  | nM (0.99) | CC(=O)CNC(=O)[C@H](CC(C)C)NC(=O)Nc1ccc(Br)cc1F [Compound 85, (2S)-2-{[(4-bromo-2-fluorophenyl)carbamoyl]amino}-4-methyl-N-(2-oxopropyl)pentanamide]
34 | 0.0121 µM | nM (0.95) | CC(C)C[C@H](NC(=O)Nc1ccc(Br)cc1F)C(=O)N[C@@H](C)C(=O)O [Compound 87, (2S)-2-{[(2S)-2-{[(4-bromo-2-fluorophenyl)carbamoyl]amino}-4-methylpentanoyl]amino} propanoic acid]
35 |  | nM (0.94) | CC1(CCc2cccs2)NC(=O)N(NC(=O)Nc2ccc(Br)cc2)C1=O (stereo not shown) [Compound 88, 1-(4-bromophenyl)-3-{4-methyl-2,5-dioxo-4-[2-(thiophen-2-yl)ethyl]imidazolidin-1-yl}urea]
36 |  | nM (0.85) | CC1(CCc2ccc(O)cc2)NC(=O)N(NC(=O)Nc2ccc(Br)cc2F)C1=O (stereo not shown) [Compound 89, 1-(4-bromo-2-fluorophenyl)-3-{4-[2-(4-hydroxyphenyl)ethyl]-4-methyl-2,5-dioxoimidazolidin-1-yl}urea]
